Measurements published in patent US12024510B2, “Pyrazolopyridine-diamides, their use as insecticide and processes for preparing the same” (PI INDUSTRIES LTD., priority 2017, dated 2024).

Columns and labels:
Assay type in all cases: in vivo
Helicoverpa armigera = Helicoverpa armigera diet incorporation method; conditions: third instar larvae, dead and moribund combined, 96 h after release
How it was run: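 500 ppm stock of compound milled with surfactant and zirconia beads to average particle size below 2 μm, dispersed in DM water, diluted as needed, and mixed into semi-synthetic diet at about 50° C. Single starved third-instar larvae per cell, held at 25° C., 70% RH; dead plus moribund larvae scored as percent mortality at 96 h.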

Spodoptera litura = Spodoptera litura diet incorporation method; conditions: third instar larvae, dead and moribund combined, 96 h after release
Procedure: Test Solutions were Prepared According to the Procedure Described Herein Below (500 PPM):
• 1. Eppendorf Vortex mixer (ThermoMixer C) and 1.5 mL Eppendorf tubes • 2. Zirconia (Zirconium-Yttrium) beads having diameter of 0.8 to 1.0 mm • 3. Microscope • 4. Beaker 100 mL • 5. Micro-pipette Reagents: • 1. Surfactant Solution • 2. De-mineralized (DM) Water • 1. Weigh 10 mg of the compound of the present invention to be tested in an Eppendorf Tube. • 2. Add 200 mg of the Surfactant Solution into the tube. • 3. Add 600 mg of Zirconia beads into the above mixture. • 4. Fix the tube in Eppendorf Vortex mixer and start vortexing at 2000 rpm. • 5. Mix on Vortex mixer for 30 minutes. After 30 minutes, observe the sample over a microscope at 400× resolution. • 6. If the Maximum particle size is more than 5 μm or average particle size is more than 2 μm or the particle size distribution is uneven, continue vortexing for another 30 minutes and again check the particle size using the microscope. Continue till the average particle size is below 2 microns. • 7. When the required particle size is achieved, add 1.0 mL DM water into the tube, close the cap, shake the tube thoroughly and transfer the contents, along with the beads, into a beaker. • 8. To rinse the tube, add another 1.0 mL of DM water into the tube, close the cap, shake well and transfer this into the same beaker. • 9. Repeat Step no. 8 one more time so that the tube is rinsed well and the compound of the present invention to be tested is transferred to the beaker. • 10. Add 16.8 mL of DM water into the beaker and stir well. • 11. The homogeneous dispersion can then be decanted into a glass vial, immediately, to separate the Zirconia beads. • 12. Immediately use this sample for biological testing. • 13. Further dilutions can be prepared by taking appropriate quantity of the aliquot of Step 10, immediately after stirring, and diluting as per requirement. The sample solution must be well mixed just before biological testing.
Diet incorporation method was used, in which semi-synthetic diet was incorporated into the test solution when the temperature is approximately 50° C. in the bioassay containers and stirred thoroughly for properly mixing and then was allowed to cool for 30 min. The solidified diet was cut into equal pieces, and then each piece was transferred in one cell in Bio-assay trays. A single third instar starved larva was released into each of these cells of bioassay trays and the tray was covered with the lid. The bio-assay trays were kept under laboratory conditions at a temperature of 25° C. and Relative Humidity of 70%. Observations on dead, moribund and live larvae were recorded at 96 h after the release of larvae. Percent mortality was calculated by combining dead and moribund larvae. The following compound numbers

Plutella xylostella = assay: whole plant or invertebrate; conditions: foliar, cabbage leaf dip, second instar larvae, dead and moribund combined, 72 h after release
How it was run: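 Compounds milled with zirconia beads into surfactant dispersion (500 ppm stock), diluted in 0.01% Triton-X. Cabbage leaves dipped 10 s, shade-dried 20 min; one second-instar larva per cell, 25 °C, 70% RH. Mortality (dead plus moribund) scored at 72 h.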

Measured: mortality at 300 ppm

CONC(=O)c1c(NC(=O)c2cc(OCC(F)(F)F)nn2-c2ncccc2Cl)c(C)cc2ccnn12 [Compound 16, 6-(1-(3-chloropyridin-2-yl)-3-(2,2,2-trifluoroethoxy)-1H-pyrazole-5-carboxamido)-N-methoxy-5-methylpyrazolo[1,5-a]pyridine-7-carboxamide]
> 70%: all assays above

Cc1cc2ccnn2c(C(=O)NC(C)(C)C)c1NC(=O)c1cc(OCC(F)(F)F)nn1-c1ncccc1Cl [Compound 19, N-(tert-butyl)-6-(1-(3-chloropyridin-2-yl)-3-(2,2,2-trifluoroethoxy)-1H-pyrazole-5-carboxamido)-5-methylpyrazolo[1,5-a]pyridine-7-carboxamide]
> 70%: all assays above

C=CCNC(=O)c1c(NC(=O)c2cc(OCC(F)(F)F)nn2-c2ncccc2Cl)c(C)cc2ccnn12 [Compound 20, N-allyl-6-(1-(3-chloropyridin-2-yl)-3-(2,2,2-trifluoroethoxy)-1H-pyrazole-5-carboxamido)-5-methylpyrazolo[1,5-a]pyridine-7-carboxamide]
> 70%: all assays above

CCCNC(=O)c1c(NC(=O)c2cc(Br)nn2-c2ncccc2Cl)c(C)cc2ccnn12 [Compound 21, 6-(3-bromo-1-(3-chloropyridin-2-yl)-1H-pyrazole-5-carboxamido)-5-methyl-N-propylpyrazolo[1,5-a]pyridine-7-carboxamide]
> 70%: all assays above

Cc1cc2ccnn2c(C(=O)NCCC#N)c1NC(=O)c1cc(Br)nn1-c1ncccc1Cl [Compound 22, 6-(3-bromo-1-(3-chloropyridin-2-yl)-1H-pyrazole-5-carboxamido)-N-(2-cyanoethyl)-5-methylpyrazolo[1,5-a]pyridine-7-carboxamide]
> 70%: all assays above

CONC(=O)c1c(NC(=O)c2cc(Br)nn2-c2ncccc2Cl)c(C)cc2ccnn12 [Compound 24, 6-(3-bromo-1-(3-chloropyridin-2-yl)-1H-pyrazole-5-carboxamido)-N-methoxy-5-methylpyrazolo[1,5-a]pyridine-7-carboxamide]
> 70%: all assays above

CNC(=O)c1c(NC(=O)c2cc(OC)nn2-c2ncccc2Cl)c(C)cc2ccnn12 [Compound 25, 6-(1-(3-chloropyridin-2-yl)-3-methoxy-1H-pyrazole-5-carboxamido)-N,5-dimethylpyrazolo[1,5-a]pyridine-7-carboxamide]
> 70%: all assays above

COc1cc(C(=O)Nc2c(C)cc3ccnn3c2C(=O)NC2CC2)n(-c2ncccc2Cl)n1 [Compound 26, 6-(1-(3-chloropyridin-2-yl)-3-methoxy-1H-pyrazole-5-carboxamido)-N-cyclopropyl-5-methylpyrazolo[1,5-a]pyridine-7-carboxamide]
> 70%: all assays above

COc1cc(C(=O)Nc2c(C)cc3ccnn3c2C(=O)NCC2CC2)n(-c2ncccc2Cl)n1 [Compound 27, 6-(1-(3-chloropyridin-2-yl)-3-methoxy-1H-pyrazole-5-carboxamido)-N-(cyclopropylmethyl)-5-methylpyrazolo[1,5-a]pyridine-7-carboxamide]
> 70%: all assays above

Cc1cc2ccnn2c(C(=O)NCC#N)c1NC(=O)c1cc(Br)nn1-c1ncccc1Cl [Compound 28, 6-(3-bromo-1-(3-chloropyridin-2-yl)-1H-pyrazole-5-carboxamido)-N-(cyanomethyl)-5-methylpyrazolo[1,5-a]pyridine-7-carboxamide]
> 70%: all assays above

CCCNC(=O)c1c(NC(=O)c2cc(OC)nn2-c2ncccc2Cl)c(C)cc2ccnn12 [Compound 29, 6-(1-(3-chloropyridin-2-yl)-3-methoxy-1H-pyrazole-5-carboxamido)-5-methyl-N-propylpyrazolo[1,5-a]pyridine-7-carboxamide]
> 70%: all assays above

COc1cc(C(=O)Nc2c(C)cc3ccnn3c2C(=O)NC(C)(C)C)n(-c2ncccc2Cl)n1 [Compound 30, N-(tert-butyl)-6-(1-(3-chloropyridin-2-yl)-3-methoxy-1H-pyrazole-5-carboxamido)-5-methylpyrazolo[1,5-a]pyridine-7-carboxamide]
> 70%: all assays above

CCNC(=O)c1c(NC(=O)c2cc(OC)nn2-c2ncccc2Cl)c(C)cc2ccnn12 [Compound 31, 6-(1-(3-chloropyridin-2-yl)-3-methoxy-1H-pyrazole-5-carboxamido)-N-ethyl-5-methylpyrazolo[1,5-a]pyridine-7-carboxamide]
> 70%: all assays above

COc1cc(C(=O)Nc2c(C)cc3ccnn3c2C(=O)NC(C)C)n(-c2ncccc2Cl)n1 [Compound 32, 6-(1-(3-chloropyridin-2-yl)-3-methoxy-1H-pyrazole-5-carboxamido)-N-isopropyl-5-methylpyrazolo[1,5-a]pyridine-7-carboxamide]
> 70%: all assays above

COCCNC(=O)c1c(NC(=O)c2cc(OC)nn2-c2ncccc2Cl)c(C)cc2ccnn12 [Compound 33, 6-(1-(3-chloropyridin-2-yl)-3-methoxy-1H-pyrazole-5-carboxamido)-N-(2-methoxyethyl)-5-methylpyrazolo[1,5-a]pyridine-7-carboxamide]
> 70%: all assays above

Cc1cc2ccnn2c(C(=O)NC2COC2)c1NC(=O)c1cc(Br)nn1-c1ncccc1Cl [Compound 35, 6-(3-bromo-1-(3-chloropyridin-2-yl)-1H-pyrazole-5-carboxamido)-5-methyl-N-(oxetan-3-yl)pyrazolo[1,5-a]pyridine-7-carboxamide]
> 70%: all assays above

C#CCNC(=O)c1c(NC(=O)c2cc(Br)nn2-c2ncccc2Cl)c(C)cc2ccnn12 [Compound 36, 6-(3-bromo-1-(3-chloropyridin-2-yl)-1H-pyrazole-5-carboxamido)-5-methyl-N-(prop-2-yn-1-yl)pyrazolo[1,5-a]pyridine-7-carboxamide]
> 70%: all assays above

CSCCNC(=O)c1c(NC(=O)c2cc(Br)nn2-c2ncccc2Cl)c(C)cc2ccnn12 [Compound 37, 6-(3-bromo-1-(3-chloropyridin-2-yl)-1H-pyrazole-5-carboxamido)-5-methyl-N-(2-(methylthio)ethyl)pyrazolo[1,5-a]pyridine-7-carboxamide]
> 70%: all assays above
